The values below come from patent US20040236519A1, “Libraries of confomationally constrained peptides, chiral azacrowns, and peptidomimetics and methods of making the same” (priority 2001, published 2004).

The target in data set [1] is Sodium, Site 2. The note with it: cited from earlier work.
Data set [2] has as its target Potassium Channel, ATP-Sensitive. To be noted: cited from earlier work.
The subject of data set [3] is Potassium Channel, ATP-Sensitive. Nature of the data set: Radioligand binding assay, potassium channel, ATP-sensitive (NOVASCREEN). To be noted: 1.0E−5 (single dose 10 μM); average, N = 2. The protocol:
(§1) Evaluation of M40403 and M40401 in the following radioligand binding assays: potassium channels (ATP-sensitive, Ca2+Act., VI, potassium channel, CA2+Act., VS) and sodium channels (site 1 and site 2). M40403 and M40401 were tested at a single does of 10 µM. The list of an appropriate radioligand used in each ion channel assay is shown in Table 1. […].
(§2) Screening assays can provide valuable information about a compound's biological activity and selectivity. NOVASCREEN Biosciences Corporation of Hanover, Md. was used for these assays. To understand and assess the data, these guidelines are to be used for interpretation of the data presented:
(§3) In most assays, our standard baseline range runs from −20% to +20% inhibition of binding or enzyme activity. […]. NOVASCREEN's assays are designed to test for inhibition of binding or enzyme activity. […]. NOVASCREEN uses a criteria of 50% inhibition (or greater) to qualify a compound as active. Active compounds tested at multiple concentrations can generally be expected to show a dose-dependent response and such follow-up studies are recommended.

Data set [4] deals with Potassium Channel, Ca2+ Act., VI. Nature of the data set: Radioligand binding assay, potassium channel, Ca2+ Act., VI (NOVASCREEN). The note with it: 1.0E−5 (single dose 10 μM); average, N = 2. The protocol:
as §1, §2, §3

Data set [5] deals with Potassium Channel, Ca2+ Act., VS. Nature of the data set: Radioligand binding assay, potassium channel, Ca2+ Act., VS (NOVASCREEN). To be noted: 1.0E−5 (single dose 10 μM); average, N = 2. The protocol:
as §1, §2, §3

A further data set deals with Sodium, Site 1. Nature of the data set: Radioligand binding assay, sodium channel site 1 (NOVASCREEN). The note with it: 1.0E−5 (single dose 10 μM); average, N = 2. How it is done:
as §1, §2, §3

In data set [6] the test system is Sodium, Site 2. Nature of the data set: Radioligand binding assay, sodium channel site 2 (NOVASCREEN). To be noted: 1.0E−5 (single dose 10 μM); average, N = 2. The protocol:
as §1, §2, §3

In another data set the target is T1, human opioid μ receptor (Homo sapiens, UniProt P35372).
T1 construct: expressed in transfected cells; host or cells: CHO cells, membranes
Nature of the data set: Opioid receptor binding, [3H]DAMGO, CHO cell membranes. The protocol:
(§4) Evaluation of M40403 binding affinity for opioid receptors in vitro radioligand binding assays. Referring to FIGS. 6-11, receptor binding studies were conducted on human opioid receptors transfected into Chinese hamster ovary (CHO) cells. The μ cell line is maintained in Ham's F-12 medium supplemented with 10% fetal bovine serum and 400 μg/ml GENETICIN (G418 sulfate). The δ cell line is maintained in Ham's F-12 medium supplemented with 10% fetal bovine serum and 500 μg/ml hygromycin B. The k cell line is maintained in Dulbecco's minimal essential medium (DMEM) supplemental with 10% fetal bovine serum, 400 μg/ml GENETICIN (G418 sulfate) and 0.1% penicillin/streptomycin. All cell lines are grown to full confluency, then harvested for membrane preparation. The membrane for binding assays is prepared in 50 mM Tris buffer, pH 7.7. Cells are harvested by scraping the plates with a rubber policeman and then centrifuged at 500×g for 10 minutes. The cell pellet is suspended in buffer A or Tris buffer, homogenized in a Polytron Homogenizer, and centrifuged at 20,000×g for 20 minutes. The cell pellet is washed in buffer A or Tris, centrifuged at 20,000×g for another 20 minutes and finally suspended in a small amount of buffer to determine protein content. Membrane is aliquoted in small vials at a concentration of 6 mg/ml per vial and stored at −70° C. and used as needed.
(§5) Routine binding assays were conducted using [^3H]DAMGO, [^3H]C1-DPDPE, and [^3H]U69,593 to bind to μ, δ and k receptors, respectively. […] Filters are dried overnight before radioactivity levels are determined. Nonspecific binding is determined by using 1.0 μM of the unlabeled counterpart of each radioligand.
(§6) Full characterization of compounds includes analysis of the data for IC50 values and Hill coefficients by using the program PRIMS. Ki values are calculated using the Cheng Prusoff transformation: [formula]
(§7) where L is radioligand concentration and Kd is the binding affinity of the radioligand, as determined previously by saturation analysis. […]

Another data set concerns the target T2, human opioid δ receptor (Homo sapiens, UniProt P41143).
T2 construct: expressed in transfected cells; host or cells: CHO cells, membranes
Kind of data set: Opioid receptor binding, [3H]Cl-DPDPE, CHO cell membranes. How it is done: as §4, §5, §6, §7

Another data set concerns the target T3, human opioid k receptor (Homo sapiens, UniProt P41145).
T3 construct: expressed in transfected cells; host or cells: CHO cells, membranes
Nature of the data set: Opioid receptor binding, [3H]U69,593, CHO cell membranes. The note with it: human receptor in CHO cell membranes, Cheng Prusoff. The protocol:
Evaluation of M40403 binding affinity for opioid receptors in vitro radioligand binding assays. Referring to FIGS. 6-11, receptor binding studies were conducted on human opioid receptors transfected into Chinese hamster ovary (CHO) cells. The μ cell line is maintained in Ham's F-12 medium supplemented with 10% fetal bovine serum and 400 μg/ml GENETICIN (G418 sulfate). The δ cell line is maintained in Ham's F-12 medium supplemented with 10% fetal bovine serum and 500 μg/ml hygromycin B. The k cell line is maintained in Dulbecco's minimal essential medium (DMEM) supplemental with 10% fetal bovine serum, 400 μg/ml GENETICIN (G418 sulfate) and 0.1% penicillin/streptomycin. […]
as §5, §6, §7

Data set [7] concerns the target Potassium Channel, Ca2+ Act., VS. The note with it: cited from earlier work.
Data set [8] is described as follows: Competitive metal binding by ESI-MS. In kind it is physicochemical. How it is done:
The ability of these peptides to bind metals was determined by electrospray-ionization mass spectrometry (hereinafter “ESI-MS”). ESI-MS has been successfully used to study a wide variety of non-covalent interactions owing to the gentle nature of the electrospray-ionization process that allows non-covalent complexes to be introduced intact into the gas phase. Thus, ESI-MS provides equilibrium information about the solution and the relative abundance of different peptide-metal binding complexes. The peptide ligands were dissolved in 50% CH3CN or methanol and then diluted to 10 mM solution with 1 mM of CH3COONH4/10% CH3OH solution. Stock solutions (200 uM) of the metal ions (CuSO4, NiSO4, ZnSO4, HgSO4. Co(NO3)2) were made. 40 ul of the ligand solution was mixed with 40 ul of the metal-ion solution, diluted with methanol or 1 mM of CH3COONH4. The solution was treated with KOH to form the complex. Competitive binding was used to study the relative metal-binding properties of each ligand by adding two different metal ions.

The target in data set [9] is Potassium Channel, Ca2+ Act., VI. The note with it: radioligand of the assay; cited from earlier work.
The conditions of data set [10]: Giblin et al., cited from earlier work; for binding affinity reduced compared with the disulfide parent: rhenium complex.
The mark [11] stands for this setting: human receptor in CHO cell membranes, Cheng Prusoff.

T1 sequence (P35372 whole entry): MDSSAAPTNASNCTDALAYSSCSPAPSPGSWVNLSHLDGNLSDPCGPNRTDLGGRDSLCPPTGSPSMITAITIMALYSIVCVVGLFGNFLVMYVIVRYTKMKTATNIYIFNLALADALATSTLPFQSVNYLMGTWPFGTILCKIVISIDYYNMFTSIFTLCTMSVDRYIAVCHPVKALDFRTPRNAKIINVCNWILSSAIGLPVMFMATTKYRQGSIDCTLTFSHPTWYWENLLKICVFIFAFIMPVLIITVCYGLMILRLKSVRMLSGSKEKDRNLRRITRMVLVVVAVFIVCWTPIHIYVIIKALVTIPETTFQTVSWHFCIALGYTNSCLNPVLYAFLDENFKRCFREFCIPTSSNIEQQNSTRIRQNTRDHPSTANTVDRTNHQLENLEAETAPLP
T2 sequence (P41143 whole entry): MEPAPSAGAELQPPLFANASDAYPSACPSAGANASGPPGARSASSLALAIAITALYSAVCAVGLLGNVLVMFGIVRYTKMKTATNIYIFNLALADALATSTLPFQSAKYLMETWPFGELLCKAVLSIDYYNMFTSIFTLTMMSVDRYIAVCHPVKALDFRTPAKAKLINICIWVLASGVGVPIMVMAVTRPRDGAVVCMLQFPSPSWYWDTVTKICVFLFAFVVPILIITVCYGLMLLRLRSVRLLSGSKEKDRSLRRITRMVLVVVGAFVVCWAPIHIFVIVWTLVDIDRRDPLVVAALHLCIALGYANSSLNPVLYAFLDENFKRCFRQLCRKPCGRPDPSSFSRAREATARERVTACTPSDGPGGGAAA
T3 sequence (P41145 whole entry): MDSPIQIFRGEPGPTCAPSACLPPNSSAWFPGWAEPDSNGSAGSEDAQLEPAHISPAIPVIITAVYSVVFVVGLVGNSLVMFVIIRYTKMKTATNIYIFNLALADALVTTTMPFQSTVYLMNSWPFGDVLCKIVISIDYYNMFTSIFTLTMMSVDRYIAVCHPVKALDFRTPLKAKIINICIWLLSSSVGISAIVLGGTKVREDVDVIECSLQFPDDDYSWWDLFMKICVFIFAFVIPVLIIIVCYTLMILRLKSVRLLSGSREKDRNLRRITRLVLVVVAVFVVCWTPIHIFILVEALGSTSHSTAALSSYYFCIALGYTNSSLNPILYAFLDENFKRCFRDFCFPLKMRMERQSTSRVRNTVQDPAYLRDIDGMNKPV

For the compound `CCN1C[C@]2(COC)[C@H](O)C[C@H](OC)[C@@]34[C@@H]5C[C@@]6(O)[C@H](OC(=O)c7ccccc7)[C@@H]5[C@@](OC(C)=O)([C@@H]([C@H](OC)[C@H]23)[C@@H]14)[C@@H](O)[C@@H]6OC` [Aconitine], the Ki (commonly the equilibrium dissociation constant of an inhibitor or competing ligand from its target) at Sodium, Site 2 [1] (reference compound, radioligand [3H]Bactrachotoxin A 20-a-Benzo, read-out: Ki (M) Ref. Cpd.) was 8.38e-07 M.

Take `COc1ccc(Cl)cc1C(=O)NCCc1ccc(S(=O)(=O)NC(=O)NC2CCCCC2)cc1` [Glibenclamide]: the Ki in data set [2] (reference compound, radioligand [3H]Glibenclamide, read-out: Ki (M) Ref. Cpd.) is 7.85e-10 M.

For the compound `[Cl-].[Cl-].[Mn+2].c1cc2nc(c1)CN[C@@H]1CCCC[C@H]1NCCN[C@@H]1CCCC[C@H]1NC2` [M40403], the “Percent Inhibition” value in [3] was 4.67%; in [4], 30.35%; in data set [5], 9.72%; in the data set with Sodium, Site 1 it was −19.68%; with Sodium, Site 2 [6] it was 93.84%. The IC50 on human opioid μ receptor (Hot Ligand [3H]DAMGO, Jul. 2, 1999 and confirmation Jul. 5, 1999, read-out: IC50, MU Binding) was above 10000 nM; on human opioid δ receptor (Hot Ligand [3H]DPDPE-CL, Jul. 2, 1999 and confirmation Jul. 5, 1999, read-out: IC50, Delta Binding), above 10000 nM. For the same compound, the Ki is above 10000 nM at human opioid μ receptor (setting [11]), above 10000 nM on human opioid δ receptor (setting [11]), around 240 nM on human opioid k receptor and 240 ± 121 nM on human opioid k receptor (listed as 20,636). The “affinity for mu receptors” value on human opioid μ receptor (summary in words) was “no significant affinity”. In addition, the “affinity for delta receptors” value on human opioid δ receptor (summary in words) was “no significant affinity”.

As for `COc1ccc(Cl)cc1C(=O)NCCc1ccc(S(=O)(=O)NC(=O)NC2CCCCC2)cc1` [[3H]Glibenclamide], the Kd (as a rule, a measure of binding affinity in units of concentration) in data set [2] (radioligand of the assay) is 0.25 nM.

Take Charybdotoxin: the Ki in [7] (reference compound, radioligand [125I]Charybdotoxin, read-out: Ki (M) Ref. Cpd.) is 5.12e-10 M.

With “H-Val-Ψ(CONOH)-Phe-Ala-Pro-Leu-CONOH [compound 14]”, the metal-binding ability entry in data set [8] (among the peptides containing two hydroxymate groups, competitive binding) is given as “strongest metal-binding ability”. For the same compound, the metal-binding specificity entry in data set [8] (competitive binding with two different metal ions) is on record as “Cu(II)>Co(II)>Fe(III)>Cd(II)>Zn(II)>Ni(II)”.

On to [3H]Bactrachotoxin A 20-a-Benzo, for which the dissociation constant Kd on Sodium, Site 2 [1] (radioligand of the assay) was 32 nM.

For [125I]Apamin, the Kd in [9] is 0.07 nM.

With [125I]Charybdotoxin, the Kd in [7] (radioligand of the assay) is 0.1 nM.

For [Cys^3,4,10, D-Phe7]-α-Msh4-13, in [10], the “binding affinity improved over the previous rhenium complex” value was 25 fold and the “binding affinity reduced compared with the disulfide parent” value is recorded as 4 fold.

On to [Cys^4,10, D-Phe7]-α-Msh4-13, for which the “binding affinity reduced compared with the disulfide parent” value in [10] is reported as “approximately 100 fold”.
